{"source": "patent EP2386631A1", "about": "“Purified lipase, methods of modification and applications” (Universiti Putra Malaysia, priority 2010, dated 2011)", "key": {"[1]": {"tested_on": "205y lipase (-SP/TM)", "assay": "Effect of inhibitors on lipase activity", "format": "biochemical, Bacillus sphaericus 205y", "details": "for Relative activity (100%): 37°C, 30 min prior to lipase assay, mean ± SD, n=3", "procedure": "The effect of inhibitors were tested on 205y lipase (-SP/TM) activity by preincubating the enzyme with dithiothreitol (DTT), β-mercaptoethanol, phenylmethylsulfonyl fluoride (PMSF), ethylenediaminetetraacetic acid ([…]) except for pepstatin A (1 mM). The residual activity was measured at optimum temperature and expressed as percentage of activity without inhibitor."}, "[2]": {"tested_on": "205y lipase (-SP/TM)", "assay": "Effect of organic solvents on lipase activity", "format": "biochemical, Bacillus sphaericus 205y", "details": "enzyme:solvent 3:1 v/v, 37°C, 30 min; relative to activity without organic solvent", "procedure": "The activity of 205 lipase (-SP/TM) towards the presence of organic solvents was tested by preincubating a mixture of purified enzyme with organic solvents (3:1, v/v) for 30 min at agitation rate of 200 rpm. Residual activity was measured at optimum temperature and expressed as percentage of activity without organic solvent. […] Mixture of enzyme and organic solvent (3:1 v/v) was incubated at 37°C for 30 min and the residual activity was measured using spectrophotometric method."}, "[3]": {"tested_on": "205y lipase (-SP/TM)", "assay": "Effect of metal ions on lipase activity", "format": "biochemical, Bacillus sphaericus 205y", "details": "1 mM metal chloride, 50 mM potassium phosphate buffer pH 8.0, 37°C, 30 min", "procedure": "The effect of metal ions on lipase activity was investigated by treating 205y lipase (-SP/TM) with 1 mM and 10 mM of various metal chlorides ( Na^+, K^+, Mg^2+, Ca^2+, Fe^2+, Mn^2+, Zn^2+ and Cu^2+) in 50 mM potassium phosphate buffer pH 8.0 at 37°C for 30 min. The mixture was subjected to lipase assay after treatment and expressed as a percentage of activity without the metal chloride."}, "[4]": {"tested_on": "wild type organic solvent stable lipase secreted by Bacillus sphaericus 205y", "details": "presence of the solvent; cited from earlier work"}, "[5]": {"tested_on": "205y lipase (-SP/TM)", "assay": "Effect of surfactants on lipase activity", "format": "biochemical, Bacillus sphaericus 205y", "details": "0.1% surfactant (text: 1 mM), 37°C, 30 min prior to lipase assay, mean ± SD, n=3", "procedure": "The activity of 205y lipase (-SP/TM) towards surfactants was determined by preincubating the enzyme with various surfactants at a concentration of 1 mM at 37°C for 30 min. The surfactants used were Tween 20, Tween 40, Tween 60, Tween 80, Triton X-100, sodium dodecyl sulphate (SDS) and sodium lauryl sulphate (SLS). Residual activity was measured colorimetrically and expressed as percentage of activity without surfactant. […]. Table 7. Effect of surfactants on 205y lipase (-SP/TM) activity"}, "[6]": {"details": "cited from earlier work"}}, "note": "Values joined by “and” are separate entries in the source; they are usually repeats but may differ in a detail not shown here. Identical values can stand only once. Square brackets hold non-standard residues; d marks the D form. Peptide text beside a SMILES is read from it. * marks the point of attachment. Sta = CC(C)C[C@H](N)[C@@H](O)CC(=O)O; Isovaleryl = CC(C)CC(=O)*"}
{"molecule": "O[C@H](CS)[C@H](O)CS", "note": "(racemic) [DTT, dithiothreitol]", "values": [{"measurement": "inhibition", "setting": "[1]; 1 mM inhibitor", "value": 16.6, "unit": "%"}, {"measurement": "Relative activity (100%)", "setting": "[1]; 1 mM inhibitor", "value": "83.4 ± 2.0", "unit": "%"}, {"measurement": "Relative activity (100%)", "setting": "[1]; 10 mM inhibitor", "value": "45.5 ± 2.5", "unit": "%"}]}
{"molecule": "CCCCCCCCCCO", "note": "[1-decanol]", "values": [{"measurement": "lost in activity", "setting": "[2]", "value": "more than 50%"}]}
{"molecule": "[Ca+2]", "note": "[Ca^2+]", "values": [{"measurement": "effect on lipase activity", "setting": "[3]", "value": "promoted"}]}
{"molecule": "[Cu+2]", "note": "[Cu^2+]", "values": [{"measurement": "activity retained", "setting": "[3]", "value": "> 50", "unit": "%"}]}
{"molecule": "C[S+](C)[O-]", "note": "[DMSO, dimethyl sulfoxide]", "values": [{"measurement": "lipase activity lost", "setting": "[4]", "value": "approximately 80%"}, {"measurement": "enhancement in activity", "setting": "[2]", "value": "more than 30%"}]}
{"molecule": "O=C(O)CN(CCN(CC(=O)O)CC(=O)O)CC(=O)O", "note": "[EDTA, ethylenediaminetetraacetic acid]", "values": [{"measurement": "Relative activity (100%)", "setting": "[1]; 1 mM inhibitor", "value": "78.2% and 78.2 ± 1.8%"}, {"measurement": "Relative activity (100%)", "setting": "[1]; 10 mM inhibitor", "value": "40.1 ± 4.2", "unit": "%"}]}
{"molecule": "[Fe+2]", "note": "[Fe^2+]", "values": [{"measurement": "activity retained", "setting": "[3]", "value": "> 50", "unit": "%"}]}
{"molecule": "[K+]", "note": "[K^+]", "values": [{"measurement": "effect on lipase activity", "setting": "[3]", "value": "promoted"}]}
{"molecule": "[Mg+2]", "note": "[Mg^2+]", "values": [{"measurement": "effect on lipase activity", "setting": "[3]", "value": "promoted"}]}
{"molecule": "[Mn+2]", "note": "[Mn^2+]", "values": [{"measurement": "activity retained", "setting": "[3]", "value": "> 50", "unit": "%"}]}
{"molecule": "[Na+]", "note": "[Na^+]", "values": [{"measurement": "activity retained", "setting": "[3]", "value": "> 50", "unit": "%"}]}
{"molecule": "O=S(=O)(F)Cc1ccccc1", "note": "[PMSF, phenylmethylsulfonyl fluoride]", "values": [{"measurement": "Relative activity (100%)", "setting": "[1]; 1 mM inhibitor", "value": "74.0 ± 3.3", "unit": "%"}, {"measurement": "Relative activity (100%)", "setting": "[1]; 10 mM inhibitor", "value": "70.3 ± 2.8", "unit": "%"}]}
{"molecule": "CC(C)CC(=O)N[C@H](C(=O)N[C@H](C(=O)N[C@@H](CC(C)C)[C@@H](O)CC(=O)N[C@@H](C)C(=O)N[C@@H](CC(C)C)[C@@H](O)CC(=O)O)C(C)C)C(C)C", "note": "[Pepstatin A, pepstatin A] (Isovaleryl-VV[Sta]A[Sta]-OH)", "values": [{"measurement": "Relative activity (100%)", "setting": "[1]; 1 mM inhibitor", "value": "86.9 ± 1.5", "unit": "%"}]}
{"molecule": "CCCCCCCCCCCCOS(=O)(=O)[O-].[Na+]", "note": "[SDS, sodium dodecyl sulphate]", "values": [{"measurement": "Relative activity (100%)", "setting": "[5]; sulphate", "value": "28.9 ± 2.8", "unit": "%"}]}
{"molecule": "CCCCCCCCCCCCOS(=O)(=O)[O-].[Na+]", "note": "[SLS, sodium lauryl sulphate]", "values": [{"measurement": "Relative activity (100%)", "setting": "[5]; sulphate", "value": "52.5% and 52.5 ± 1.9%"}]}
{"molecule": "[Zn+2]", "note": "[Zn^2+]", "values": [{"measurement": "activity retained", "setting": "[3]", "value": "> 50", "unit": "%"}]}
{"molecule": "CC#N", "note": "[acetonitrile]", "values": [{"measurement": "effect on lipase activity", "setting": "[4]", "value": "complete deactivation"}, {"measurement": "log P", "setting": "[6]", "value": -0.15}, {"measurement": "enhancement in activity", "setting": "[2]", "value": "more than 30%"}]}
{"molecule": "CCO", "note": "[ethanol]", "values": [{"measurement": "enhancement in activity", "setting": "[2]", "value": "more than 30%"}]}
{"molecule": "CCCCCCCCCCCCCCCC", "note": "[hexadecane]", "values": [{"measurement": "log P", "setting": "[6]", "value": 8.8}, {"measurement": "enhancement in activity", "setting": "[2]", "value": "more than 30%"}]}
{"molecule": "CO", "note": "[methanol]", "values": [{"measurement": "log P", "setting": "[6]", "value": -0.76}, {"measurement": "enhancement in activity", "setting": "[2]", "value": "more than 30%"}]}
{"molecule": "CCCCCCCCCC", "note": "[n-decane]", "values": [{"measurement": "log P", "setting": "[6]", "value": 5.6}, {"measurement": "enhancement in activity", "setting": "[2]", "value": "more than 30%"}]}
{"molecule": "CCCCCCCCCCCC", "note": "[n-dodecane]", "values": [{"measurement": "log P", "setting": "[6]", "value": 6.6}, {"measurement": "lost in activity", "setting": "[2]", "value": "more than 50%"}]}
{"molecule": "CCCCCC", "note": "[n-hexane]", "values": [{"measurement": "enzyme activity enhanced", "setting": "[4]", "value": 3.5, "unit": "fold"}]}
{"molecule": "Cc1ccc(C)cc1", "note": "[p-xylene]", "values": [{"measurement": "enzyme activity enhanced", "setting": "[4]", "value": 2.9, "unit": "fold"}, {"measurement": "log P", "setting": "[6]", "value": 3.1}, {"measurement": "lost in activity", "setting": "[2]", "value": "more than 50%"}]}
{"molecule": "Cc1ccccc1", "note": "[toluene]", "values": [{"measurement": "lost in activity", "setting": "[2]", "value": "more than 50%"}]}
{"molecule": "OCCS", "note": "[β-mercaptoethanol]", "values": [{"measurement": "inhibition", "setting": "[1]; 1 mM inhibitor", "value": 2.8, "unit": "%"}, {"measurement": "Relative activity (100%)", "setting": "[1]; 1 mM inhibitor", "value": "97.2 ± 2.7", "unit": "%"}, {"measurement": "Relative activity (100%)", "setting": "[1]; 10 mM inhibitor", "value": "76.3 ± 1.2", "unit": "%"}]}
{"molecule": "Triton X-100", "values": [{"measurement": "Relative activity (100%)", "setting": "[5]", "value": "47.3 ± 4.4", "unit": "%"}]}
{"molecule": "Tween 20", "values": [{"measurement": "Relative activity (100%)", "setting": "[5]", "value": "31.3 ± 1.1", "unit": "%"}]}
{"molecule": "Tween 40", "values": [{"measurement": "Relative activity (100%)", "setting": "[5]", "value": "27.9 ± 1.7", "unit": "%"}]}
{"molecule": "Tween 60", "values": [{"measurement": "Relative activity (100%)", "setting": "[5]", "value": "34.0 ± 3.5", "unit": "%"}]}
{"molecule": "Tween 80", "values": [{"measurement": "Relative activity (100%)", "setting": "[5]", "value": "29.4 ± 2.4", "unit": "%"}]}
{"molecule": "n-butanol", "values": [{"measurement": "lost in activity", "setting": "[2]", "value": "more than 50%"}]}
